Where a name gives a salt, the structure may show the parent alone.
Biological target: T1, Porcine DPP-IV (Sus scrofa, UniProt P22411)
T1 construct: purchased Sigma-Aldrich Germany
Assay: Assay of DPP-IV enzyme inhibitory activity (spectrophotometric, Gly-Pro-pNA cleavage)
Format: biochemical
Details: Porcine DPP-IV, Gly-Pro-pNA substrate, 30° C.; mean ± SD of three experiments except compound Nos. 133 & 139; read-out: IC50 (μM) Mean ± SD, inhibitory activity on DPP-IV enzyme activity
Description: Assay of DPP-IV Enzyme Inhibitory Activity.
The assay method is a modified method (as described by Welch et al, 1998) based on spectrophotometric determination of the product formed by penultimate proline cleaving activity of the enzyme.
Assay protocol involves incubation of the enzyme dipeptidyl peptidase IV with the test substance at 30° C. for 30 min followed by addition of this reaction mixture to the substrate Gly-Pro-pNA that was equilibrated at 30° C. for 2 min. The enzyme cleaves the substrate at penultimate proline and releases p-nitroanilide, the optical density of which is measured at 385 nm. The formation of p-nitroanilide will be reduced in the presence of inhibitor. […] The activity of molecule is expressed in terms of % inhibition. At least three different concentrations were tried out for each of the test substances. The percentage inhibitions for each of the concentrations were plotted and an IC50 of the test compound was worked out. The enzyme inhibitory activity of different test compounds were compared based on the IC50 values.
The percentage inhibition % I, is calculated using the formula:
% I=[(1−vi/v0)]*100 where vi and v0 are the Vmax values with and without the test substance, respectively.
Substrate solution: 0.5 mM in 45 mM phosphate buffer
Substrate used: Gly-Pro-p-nitroanilide (Source: Sigma-Aldrich Co. Germany)
3.288 mg substrate in 1 ml 45 mM phosphate buffer was prepared as stock solution. 0.25 ml of this stock solution was diluted to 5 ml to get 0.5 mM substrate solution (90 μl to be added in each well). The stock solution of the substrate was used within three days of preparation.
Enzyme solution: Porcine DPP-IV (Sigma-Aldrich Germany) was used throughout the study. 0.4 mU in 80 μl of Tris. HCl buffer was prepared. Fresh solutions were prepared everyday for the assays.
Various concentrations of inhibitor were used: 0.391 μM, 0.781 μM, and 3.125 μM. Solutions of inhibitor were prepared and used on the same day.
280 μl of enzyme solution (0.4-mU/80 μl in Tris HCl buffer) was added to the eppendorf containing 70 μl solution of inhibitor or vehicle and mixed. This reaction mixture was incubated for 30 min at 30° C. The 96 well plate containing substrate solution was thermally equilibrated in the spectrophotometer for 2 min at 30° C. Later 100 μl of the enzyme-inhibitor pre-incubation solution was added to respective wells in a 96 well plate. Each concentration of the inhibitor was tested in triplicates.
The rate of change in UV absorbance (in presence of various concentrations of the inhibitor) was measured at 385 nm, with respect to wells containing only 0.5 mM substrate in 45 mM phosphate buffer as blank at every 10 min for 2 hours after adding enzyme-inhibitor mixture to wells containing substrate solution.

T1 sequence (P22411 whole entry): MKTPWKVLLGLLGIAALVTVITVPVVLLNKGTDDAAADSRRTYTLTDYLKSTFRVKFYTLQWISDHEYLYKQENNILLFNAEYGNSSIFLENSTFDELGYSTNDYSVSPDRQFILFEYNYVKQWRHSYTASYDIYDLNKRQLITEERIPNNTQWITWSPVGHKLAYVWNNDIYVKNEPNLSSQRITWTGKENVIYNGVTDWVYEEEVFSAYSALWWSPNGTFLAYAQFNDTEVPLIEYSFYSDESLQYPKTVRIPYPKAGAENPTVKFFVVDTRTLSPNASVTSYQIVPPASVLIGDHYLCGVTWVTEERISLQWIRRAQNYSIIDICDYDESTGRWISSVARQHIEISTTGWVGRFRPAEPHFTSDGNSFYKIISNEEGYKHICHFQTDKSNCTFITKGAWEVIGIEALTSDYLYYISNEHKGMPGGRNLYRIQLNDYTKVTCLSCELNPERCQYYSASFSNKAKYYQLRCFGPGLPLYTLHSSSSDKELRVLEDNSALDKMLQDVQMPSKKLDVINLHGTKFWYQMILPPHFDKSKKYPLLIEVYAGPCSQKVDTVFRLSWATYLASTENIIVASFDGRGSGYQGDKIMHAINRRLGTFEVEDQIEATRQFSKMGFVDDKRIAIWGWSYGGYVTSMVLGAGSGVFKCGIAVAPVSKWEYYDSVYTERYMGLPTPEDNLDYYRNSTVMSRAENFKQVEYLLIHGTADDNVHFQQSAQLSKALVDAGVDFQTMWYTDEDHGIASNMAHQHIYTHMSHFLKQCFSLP

N#CC1CSCN1C(=O)CN(N)C1CCN(CC(=O)NC2CC2)CC1 (single isomer, unassigned) [compound 146, 3-[1-oxo-2-(1-(1-(2-cyclopropyl-1-yl)aminoethyl)piperidin-4-yl)) hydrazino]ethyl-4-cyano thiazolidine, dihydrochloride]
IC50: 217 ± 9.07 µM

N#CC1CCCN1C(=O)CN(N)c1ccccc1 (centres unmarked) [Compound No. 3, 1-[1-Oxo-2-((1-phenyl)-hydrazino)] ethyl-2-cyano pyrrolidine trifluoroacetate]
IC50: 34.1 ± 4.57 µM

N#CC1CCCN1C(=O)CNN (centres unmarked) [Compound No. 4, 1-[1-Oxo-2-(1-hydrazino)]ethyl-2-cyano pyrrolidine trifluoroacetate]
IC50: 88.6 ± 18.1 µM

N#CC1CSCN1C(=O)CN(N)c1ccccc1 (centres unmarked) [Compound No. 9, 3-[1-Oxo-2-((1-phenyl)hydrazino)]ethyl-4-cyano Thiazolidine Trifluoroacetate]
IC50: 6.18 ± 0.88 µM

CC(C)CN(N)CC(=O)N1CCCC1C#N (centres unmarked) [Compound No. 10, 1-[1-Oxo-2-(1-(2-methylpropyl)hydrazino)]ethyl-2-cyano pyrrolidine trifluoroacetate]
IC50: 69.8 ± 17.5 µM

CC(C)N(N)CC(=O)N1CCCC1C#N (centres unmarked) [Compound No. 12, 1-[1-Oxo-2-((1-(1-methyl)ethyl)hydrazino)]ethyl-2-cyano pyrrolidine trifluoroacetate]
IC50: 61.3 ± 4.55 µM

CCN(CC)NCC(=O)N1CSCC1C#N (centres unmarked) [Compound No. 13, 1-[1-Oxo-2-((2,2-diethyl)-hydrazino)]ethyl-2-cyano thiazolidine]
IC50: 57.1 ± 3.76 µM

CCN(N)CC(=O)N1CCCC1C#N (centres unmarked) [Compound No. 14, 1-[1-Oxo-2-((1-ethyl)hydrazino)]ethyl-2-cyano pyrrolidine trifluoroacetate]
IC50: 93.7 ± 5.54 µM

N#CC1CSCN1C(=O)CNN (centres unmarked) [Compound No. 15, 3-[1-Oxo-2-(1-hydrazino)]ethyl-4-cyano thiazolidine trifluoroacetate]
IC50: 41.9 ± 11.6 µM

N#CC1CSCN1C(=O)CN(N)Cc1ccccc1 (centres unmarked) [Compound No. 16, 3-[1-Oxo-2-((1-phenylmethyl)hydrazino)]ethyl-4-cyano thiazolidine trifluoroacetate]
IC50: 9.29 ± 0.64 µM

N#CC1CSCN1C(=O)CN(N)Cc1ccc([N+](=O)[O-])cc1 (centres unmarked) [Compound No. 17, 3-[1-Oxo-2-((1-(4-nitrophenylmethyl))hydrazino)]ethyl-4-cyano thiazolidine trifluoroacetate]
IC50: 35.8 ± 1.03 µM

N#CC1CCCN1C(=O)CN(N)C1CCCC1 (centres unmarked) [Compound No. 18, 1-[1-Oxo-2-((1-Cyclopentyl)-hydrazino)]ethyl-2-cyano pyrrolidine trifluoroacetate]
IC50: 32.1 ± 1.65 µM

N#CC1CCCN1C(=O)CN(N)C1CCCCC1 (centres unmarked) [Compound No. 20, 1-[1-Oxo-2-((1-Cyclohexyl)-hydrazino)]ethyl-2-cyano pyrrolidine trifluoroacetate]
IC50: 33.7 ± 0.99 µM

CCC(C)N(N)CC(=O)N1CCCC1C#N (centres unmarked) [Compound No. 22, 1-[1-Oxo-2-((1-methylpropyl)hydrazino)]ethyl-2-cyano pyrrolidine trifluoroacetate]
IC50: 76.5 ± 7.51 µM

CCC(C)N(N)CC(=O)N1CSCC1C#N (centres unmarked) [Compound No. 23, 3-[1-Oxo-2-((1-methylpropyl)hydrazino)]ethyl-4-cyano thiazolidine trifluoroacetate]
IC50: 2.94 ± 0.15 µM

CC1CCC(NNCC(=O)N2CCCC2C#N)CC1 (centres unmarked) [Compound No. 26, 1-[1-Oxo-2-((4-Methyl)cyclohexyl)hydrazino)]ethyl-2-cyano pyrrolidine trifluoroacetate]
IC50: 10 ± 0.79 µM

N#CC1CCCN1C(=O)CN(N)c1ccccn1 (centres unmarked) [Compound No. 27, 1-[1-Oxo-2-(1-(2-Pyridyl)-hydrazino)]ethyl-2-cyano pyrrolidine bis-trifluoroacetate]
IC50: 43 ± 2.76 µM

N#CC1CSCN1C(=O)CN(N)C1CCCCCC1 (centres unmarked) [Compound No. 28, 3-[1-Oxo-2-((1-Cycloheptyl)-hydrazino)] ethyl-4-cyano thiazolidine trifluoroacetate]
IC50: 2.29 ± 0.11 µM

N#CC1CCCN1C(=O)CN(N)C1CCCCCC1 (centres unmarked) [Compound No. 30, 1-[1-Oxo-2-((1-Cycloheptyl)-hydrazino)]ethyl-2-cyano pyrrolidine trifluoroacetate]
IC50: 35.1 ± 2.66 µM

N#CC1CCCN1C(=O)CNNC1CCCCC1 (centres unmarked) [Compound No. 34, 1-[1-Oxo-2-(2-cyclohexyl) hydrazino] ethyl-2-cyanopyrrolidine trifluoroacetate]
IC50: 30.3 ± 5.5 µM

CC(C)NN(CC(=O)N1CSCC1C#N)C1CCCCC1 (centres unmarked) [Compound No. 36, 3-[1-Oxo-2-(1-cyclohexyl-2-isopropyl) hydrazino]ethyl-4-cyanothiazolidine hydrochloride]
IC50: 23.3 ± 2.54 µM

CC1CCC(NNCC(=O)N2CCCC2C#N)CC1 (centres unmarked) [Compound No. 37, 1-[1-Oxo-2-(4-methylcyclohexyl)hydrazino]ethyl-2-cyanopyrrolidine trifluoroacetate]
IC50: 28.3 ± 4.6 µM

CC(C)NN(CC(=O)N1CCCC1C#N)C1CCCCC1 (centres unmarked) [Compound No. 38, 1-[1-Oxo-2-(1-cyclohexyl-2-isopropyl)hydrazino]ethyl-2-cyano pyrrolidine]
IC50: 96.9 ± 23 µM

CC1CCC(CN(N)CC(=O)N2CCCC2C#N)CC1 (centres unmarked) [Compound No. 39, 1-[1-Oxo-2-(1-(4-methylcyclohexylmethyl)hydrazino)]ethyl-2-cyanopyrrolidine trifluoroacetate]
IC50: 50.4 ± 4.59 µM

CC(C)N(N)CC(=O)N1CCCC1C#N (centres unmarked) [Compound No. 41, 1-[1-Oxo-2-isopropyl-2-hydrazino]ethyl-2-cyano pyrrolidine trifluoroacetate]
IC50: 48.3 ± 1.75 µM

CCNN(CC(=O)N1CSCC1C#N)C1CCC(C)CC1 (centres unmarked) [Compound No. 42, 3-[1-Oxo-2-(1-(4-methylcyclohexyl)-2-ethyl)hydrazino]ethyl-4-cyanothiazolidine trifluoroacetate]
IC50: 0.53 ± 0.09 µM

N#CC1CSCN1C(=O)CN(N)C(=O)N1CCOCC1 (centres unmarked) [Compound No. 43, 3-[1-Oxo-2-(1-(4-morpholinocarbonyl) hydrazino)ethyl]-4-cyanothiazolidine trifluoroacetate]
IC50: 38.2 ± 2.56 µM

CC1CCC(N(CC(=O)N2CSCC2C#N)NC(C)C)CC1 (centres unmarked) [Compound No. 44, 3-[1-Oxo-2-(1-(4-methylcyclohexyl)-2-isopropyl)hydrazino]ethyl-4-cyanothiazolidine trifluoroacetate]
IC50: 2.86 ± 0.18 µM

N#CC1CCCN1CC(=O)NN(CC(=O)N1CCCC1C#N)C1CCCCC1 (centres unmarked) [Compound No. 45, 1-[1-Oxo-2-[(1-cyclohexyl)-2-(2-cyano-1-pyrrolidinoacetyl)]hydrazino]ethyl-2-cyanopyrrolidine trifluoroacetate]
IC50: 44 ± 1.92 µM

N#CC1CSCN1C(=O)CN(NC(=O)NCCc1ccccn1)C(=O)NCCc1ccccn1 (centres unmarked) [Compound No. 46, 3-[1-Oxo-2-(1,2-bis-(2-(2-pyridyl)ethylaminocarbonyl)hydrazino)]ethyl-4-cyano thiazolidine bis trifluoroacetate]
IC50: 78.6 ± 4.58 µM

CC(C)(C)C1CCC(N(N)CC(=O)N2CSCC2C#N)CC1 (centres unmarked) [Compound No. 47, 3-[1-Oxo-2-(1-(4-tert-butylcyclohexyl)hydrazino)]ethyl-4-cyanothiazolidine trifluoro acetate]
IC50: 1.14 ± 0.09 µM

N#CC1CCCN1C(=O)CN(N)C1CCCc2ccccc21 (centres unmarked) [Compound No. 48, 1-[1-Oxo-2-(1-tetralinyl)hydrazino]ethyl-2-cyanopyrrolidine trifluoroacetate]
IC50: 45.2 ± 1.21 µM
